Measurements: article PMC12682947, “Identification of New KCNT1‐Epilepsy Drugs by In Silico, Cell, and Drosophila Modeling” (Annals of Neurology, 2025)
Where a name gives a salt, the structure may show the parent alone.

Experiments:
[1] = tested on: Drosophila KCNT1 mutant line G288S; test: Bang-sensitive behavioral seizure assay, Drosophila KCNT1 mutant line G288S; format: in vivo, Drosophila melanogaster; details: drug in food
Source text: (§1) The Drosophila melanogaster lines carrying the WT human KCNT1 transgene (NM_020822_3) or KCNT1 mutant G288S, R398Q or R928C transgene placed downstream of the yeast UAS promoter, have been described previously.[11] WT or mutant human UAS‐KCNT1 flies were crossed to flies expressing the GAL4 transcriptional activator under the control of the GAD1 promoter (GABAergic driver, Bloomington stock number 51630 P2) to drive expression of KCNT1 in GABAergic neurons, involved in neuronal inhibition.[11]
(§2) The bang‐sensitive behavioral assay (also known as the banging assay) was used to test for the presence of a seizure phenotype in Drosophila.[11], [30] Experiments were performed and scored, as previously described,[11] with a minimum of 50 Drosophila tested for each genotype and drug concentration.
(§3) Four drugs were selected for in vivo analysis to determine their effects on the seizure phenotypes in transgenic Drosophila lines with human mutant KCNT1 channels. […]
(§4) In all experiments, experimenters were not blinded to variants or treatments, nor were samples randomly assigned to groups. Sample sizes were not calculated in advance and no data were excluded from the analysis. Data were analyzed using GraphPad Prism 9 software (San Diego, CA, USA). […] All data passed normality and lognormality Shapiro–Wilk tests, determined by GraphPad Prism 9. […]

[2] = tested on: Drosophila KCNT1 mutant line R398Q; test: Bang-sensitive behavioral seizure assay, Drosophila KCNT1 mutant line R398Q; format: in vivo, Drosophila melanogaster; details: drug in food
Source text: as §1, §2, §3, §4

Structure (SMILES) | reduction of the seizure phenotype [1] | reduction of the seizure phenotype [2]
O=C(OCCN1CCN(c2cccc(C(F)(F)F)c2)CC1)c1ccccc1Nc1ccnc2cc(C(F)(F)F)ccc12 [antrafenine] | at least 50% | at least 50%
Cc1c(O)cccc1C(=O)N[C@@H](CSc1ccccc1)[C@H](O)CN1C[C@H]2CCCC[C@H]2C[C@H]1C(=O)NC(C)(C)C [nelfinavir mesylate] | 50% | 50%
